This note sets out measurements from patent US11718622B2, “Heterocyclic adenosine receptor antagonists” (Exelixis, Inc., priority 2020, dated 2023).

For assay [1], the target named is Adenosine A2a (ADORA2A) receptor (Homo sapiens (Human), UniProt P29274). In words: ADORA2A Receptor Binding Assay. The settings on record: radioligand binding, membrane stock. The gist of the method:
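Test compounds incubated with A2a receptor membranes and a ³H-labelled radioligand for 2 hours at room temperature, then filtered through PEI-presoaked GF/C plates and washed. Filter-bound ³H counted by scintillation; % inhibition calculated from background-subtracted signal relative to high control.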

Assay [2] has as its target Adenosine A2B (ADORA2B) receptor (Homo sapiens (Human), UniProt P29275). In words: ADORA2B Receptor Binding Assay. The settings on record: radioligand binding, membrane stock. The method in brief:
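Radioligand competition binding on human A2B receptor membranes, 1 h at room temperature, then filtration through BSA-presoaked GF/C filters and ³H counting by scintillation. Inhibition expressed as % of high control after background subtraction.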

Chain of Adenosine A2a (ADORA2A) receptor (P29274 whole entry): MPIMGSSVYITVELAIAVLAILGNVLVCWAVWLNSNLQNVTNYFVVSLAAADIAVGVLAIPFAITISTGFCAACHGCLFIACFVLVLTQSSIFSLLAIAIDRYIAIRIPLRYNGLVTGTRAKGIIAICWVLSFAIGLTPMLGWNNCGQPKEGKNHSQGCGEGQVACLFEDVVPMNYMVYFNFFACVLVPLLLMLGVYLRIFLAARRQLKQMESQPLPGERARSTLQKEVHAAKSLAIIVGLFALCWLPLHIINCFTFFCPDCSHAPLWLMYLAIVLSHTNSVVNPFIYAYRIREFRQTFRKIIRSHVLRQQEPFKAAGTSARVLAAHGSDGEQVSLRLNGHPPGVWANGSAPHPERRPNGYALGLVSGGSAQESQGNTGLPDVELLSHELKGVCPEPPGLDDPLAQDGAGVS
Chain of Adenosine A2B (ADORA2B) receptor (P29275 whole entry): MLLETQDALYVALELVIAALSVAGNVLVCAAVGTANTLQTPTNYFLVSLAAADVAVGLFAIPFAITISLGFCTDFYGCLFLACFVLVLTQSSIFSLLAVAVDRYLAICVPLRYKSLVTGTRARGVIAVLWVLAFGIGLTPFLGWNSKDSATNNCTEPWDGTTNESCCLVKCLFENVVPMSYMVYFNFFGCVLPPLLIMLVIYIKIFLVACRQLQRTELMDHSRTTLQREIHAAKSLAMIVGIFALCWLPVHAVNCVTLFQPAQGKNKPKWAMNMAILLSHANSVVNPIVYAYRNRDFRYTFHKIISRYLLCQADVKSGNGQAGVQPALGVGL

In the case of `Cc1cn2c(Br)c(N)nc(-c3ccccc3)c2n1` [Compound 203, 5-bromo-2-methyl-8-phenylimidazo[1,2-a]pyrazin-6-amine], the IC50 in assay [1] and in assay [2] was 100 to 1000 nM throughout.
With `Nc1nc(-c2ccccc2)c2nc(C(F)(F)F)cn2c1Cl` [Compound 204, 5-chloro-8-phenyl-2-(trifluoromethyl)imidazo[1,2-a]pyrazin-6-amine], the IC50 in assay [1] and in assay [2] was 10 to 100 nM throughout.
As to `CC(=O)Nc1cn2cc(C)nc2c(-c2ccc(C)o2)n1` [Compound 205, N-[2-methyl-8-(5-methylfuran-2-yl)imidazo[1,2-a]pyrazin-6-yl]acetamide], the IC50 was under 10 nM in assay [1] and 10 to 100 nM in assay [2].
For the compound `Cc1cn2c(Br)c(N)nc(-c3ccc(F)cc3)c2n1` [Compound 206, 5-bromo-8-(4-fluorophenyl)-2-methylimidazo[1,2-a]pyrazin-6-amine], the IC50 in assay [1] and in assay [2] was 100 to 1000 nM in each case.
As to `Cc1cccc(-c2nc(N)c(Cl)n3cc(C)nc23)c1` [Compound 207, 5-chloro-2-methyl-8-(3-methylphenyl)imidazo[1,2-a]pyrazin-6-amine], the half-maximal inhibitory concentration (IC50) in assay [1] and in assay [2] was 100 to 1000 nM each time.
As for `Cc1cn2cc(NC(=O)C3CC3)nc(-c3ccco3)c2n1` [Compound 208, N-[8-(furan-2-yl)-2-methylimidazo[1,2-a]pyrazin-6-yl]cyclopropanecarboxamide], the IC50 was under 10 nM in assay [1] and 10 to 100 nM in assay [2].
On to `Cc1ccc(-c2nc(NC(=O)C3CC3)cn3cc(CO)nc23)o1` [Compound 209, N-[2-(hydroxymethyl)-8-(5-methylfuran-2-yl)imidazo[1,2-a]pyrazin-6-yl]cyclopropanecarboxamide], for which the concentration for half-maximal inhibition (IC50) is under 10 nM in assay [1] and 10 to 100 nM in assay [2].
Regarding `Cc1ccc(-c2nc(NC(=O)C3CC3)cn3cc(CF)nc23)o1` [Compound 210, N-[2-(fluoromethyl)-8-(5-methylfuran-2-yl)imidazo[1,2-a]pyrazin-6-yl]cyclopropanecarboxamide], the IC50 was under 10 nM in assay [1] and 10 to 100 nM in assay [2].
In the case of `CC(=O)Nc1cn2cc(C)nc2c(-c2ccco2)n1` [Compound 211, N-[8-(furan-2-yl)-2-methylimidazo[1,2-a]pyrazin-6-yl]acetamide], the IC50 in assay [1] and in assay [2] was 10 to 100 nM each time.
Regarding `CC(C)c1cn2cc(NC(=O)C3CC3)nc(-c3ccco3)c2n1` [Compound 212, N-[8-(furan-2-yl)-2-propan-2-ylimidazo[1,2-a]pyrazin-6-yl]cyclopropanecarboxamide], the figures for the concentration for half-maximal inhibition (IC50) in assay [1] and in assay [2] were under 10 nM and 10 to 100 nM, respectively.
Turning to `CC(C)c1cn2c(Cl)c(N)nc(-c3ccccc3)c2n1` [Compound 213, 5-chloro-8-phenyl-2-propan-2-ylimidazo[1,2-a]pyrazin-6-amine], the results for the concentration for half-maximal inhibition (IC50) in assay [1] and in assay [2] were 10 to 100 nM and 100 to 1000 nM, respectively.
With `Cc1ccc(-c2nc(N)c(Cl)n3cc(C)nc23)cc1` [Compound 214, 5-chloro-2-methyl-8-(4-methylphenyl)imidazo[1,2-a]pyrazin-6-amine], the half-maximal inhibitory concentration (IC50) in assay [1] and in assay [2] was 100 to 1000 nM in each case.
Consider `Cc1ccc(-c2nc(NC(=O)C3CC3)cn3cc(C(C)C)nc23)o1` [Compound 215, N-[8-(5-methylfuran-2-yl)-2-propan-2-ylimidazo[1,2-a]pyrazin-6-yl]cyclopropanecarboxamide], for which the values for the half-maximal inhibitory concentration (IC50) in assay [1] and in assay [2] were under 10 nM and 10 to 100 nM, respectively.
On to `Cc1cn2c(Cl)c(N)nc(-c3ccccc3C)c2n1` [Compound 216, 5-chloro-2-methyl-8-(2-methylphenyl)imidazo[1,2-a]pyrazin-6-amine], for which the IC50 in assay [1] and in assay [2] was over 1000 nM throughout.
In the case of `CNC(=O)Nc1cn2cc(C)nc2c(-c2ccco2)n1` [Compound 217, 1-[8-(furan-2-yl)-2-methylimidazo[1,2-a]pyrazin-6-yl]-3-methylurea], the IC50 in assay [1] and in assay [2] was 10 to 100 nM in each case.
Regarding `COC(=O)Nc1cn2cc(C)nc2c(-c2ccco2)n1` [Compound 218, methyl N-[8-(furan-2-yl)-2-methylimidazo[1,2-a]pyrazin-6-yl]carbamate], the concentration for half-maximal inhibition (IC50) in assay [1] was 10 to 100 nM; in assay [2], 100 to 1000 nM.
Turning to `CCOC(=O)Nc1cn2cc(C)nc2c(-c2ccco2)n1` [Compound 219, ethyl N-[8-(furan-2-yl)-2-methylimidazo[1,2-a]pyrazin-6-yl]carbamate], the IC50 in assay [1] was 10 to 100 nM; in assay [2], 100 to 1000 nM.
For the compound `CCC(=O)Nc1cn2cc(C)nc2c(-c2ccco2)n1` [Compound 220, N-[8-(furan-2-yl)-2-methylimidazo[1,2-a]pyrazin-6-yl]propanamide], the figures for the half-inhibitory concentration (IC50) in assay [1] and in assay [2] were under 10 nM and 10 to 100 nM, respectively.
Consider `Cc1cn2cc(NC(=O)C(F)F)nc(-c3ccco3)c2n1` [Compound 221, 2,2-difluoro-N-[8-(furan-2-yl)-2-methylimidazo[1,2-a]pyrazin-6-yl]acetamide], for which the figures for the 50% inhibitory concentration (IC50) in assay [1] and in assay [2] were under 10 nM and 10 to 100 nM, respectively.
Taken in the same sequence, the figures for `CCCC(=O)Nc1cn2cc(C)nc2c(-c2ccco2)n1` [Compound 222, N-[8-(furan-2-yl)-2-methylimidazo[1,2-a]pyrazin-6-yl]butanamide] were 10 to 100 nM and 100 to 1000 nM.
`CCNC(=O)Nc1cn2cc(C)nc2c(-c2ccco2)n1` [Compound 223, 1-ethyl-3-[8-(furan-2-yl)-2-methylimidazo[1,2-a]pyrazin-6-yl]urea]: the values for the half-maximal inhibitory concentration (IC50) in assay [1] and in assay [2] were under 10 nM and 10 to 100 nM, respectively.
Take `Cc1cn2cc(NS(C)(=O)=O)nc(-c3ccco3)c2n1` [Compound 224, N-[8-(furan-2-yl)-2-methylimidazo[1,2-a]pyrazin-6-yl]methanesulfonamide]: the concentration for half-maximal inhibition (IC50) in assay [1] is 100 to 1000 nM; in assay [2], over 1000 nM.
Taken in the same sequence, the figures for `CCS(=O)(=O)Nc1cn2cc(C)nc2c(-c2ccco2)n1` [Compound 225, N-[8-(furan-2-yl)-2-methylimidazo[1,2-a]pyrazin-6-yl]ethanesulfonamide] were 100 to 1000 nM and 100 to 1000 nM.
